Measured values published in the supplement of paper PMC10307832.

Key:
Assay in all cases: relative viability (nuclei count vs DMSO), 5 days (fraction); higher = more cells survive
Tivantinib + Vorinostat = compound: O=C1NC(=O)[C@@H](c2cn3c4c(cccc24)CCC3)[C@@H]1c1c[nH]c2ccccc12 [Tivantinib] + O=C(CCCCCCC(=O)Nc1ccccc1)NO [Vorinostat] (partner 1 µM)
Method in brief: (§1)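 Medians of duplicate plates are given as relative viability. That measure is the nuclei count in treated wells divided by the count in vehicle wells. Counts were taken on 4× images of lung cancer cell lines in 1536-well plates, 5 days after pin-tool dosing the day after seeding with one drug alone or a fixed anchor-drug dose plus five library-drug doses (not always all listed) in √10 steps.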

Crenolanib + Alpelisib = compound: CC1(COc2ccc3c(c2)ncn3-c2ccc3cccc(N4CCC(N)CC4)c3n2)COC1 [Crenolanib] + Cc1nc(NC(=O)N2CCC[C@H]2C(N)=O)sc1-c1ccnc(C(C)(C)C(F)(F)F)c1 [Alpelisib] (partner 2 µM)
Method in brief: as §1

Crenolanib + Phenformin = compound: CC1(COc2ccc3c(c2)ncn3-c2ccc3cccc(N4CCC(N)CC4)c3n2)COC1 [Crenolanib] + N=C(N)NC(=N)NCCc1ccccc1 [Phenformin] (partner 250 µM)
Method in brief: as §1

Crenolanib + Trametinib = compound: CC1(COc2ccc3c(c2)ncn3-c2ccc3cccc(N4CCC(N)CC4)c3n2)COC1 [Crenolanib] + CC(=O)Nc1cccc(-n2c(=O)n(C3CC3)c(=O)c3c(Nc4ccc(I)cc4F)n(C)c(=O)c(C)c32)c1 [Trametinib] (partner 0.02 µM)
Method in brief: as §1

Cell Line	relative viability (Tivantinib + Vorinostat; first compound 0.01 µM)	relative viability (Tivantinib + Vorinostat; first compound 0.03162 µM)	relative viability (Tivantinib + Vorinostat; first compound 0.1 µM)	relative viability (Tivantinib + Vorinostat; first compound 0.3162 µM)	relative viability (Crenolanib + Alpelisib; first compound 0.01 µM)	relative viability (Crenolanib + Alpelisib; first compound 0.03162 µM)	relative viability (Crenolanib + Alpelisib; first compound 0.1 µM)	relative viability (Crenolanib + Alpelisib; first compound 0.3162 µM)	relative viability (Crenolanib + Alpelisib; first compound 1 µM)	relative viability (Crenolanib + Phenformin; first compound 0.01 µM)	relative viability (Crenolanib + Phenformin; first compound 0.03162 µM)	relative viability (Crenolanib + Phenformin; first compound 0.1 µM)	relative viability (Crenolanib + Phenformin; first compound 0.3162 µM)	relative viability (Crenolanib + Phenformin; first compound 1 µM)	relative viability (Crenolanib + Trametinib; first compound 0.01 µM)	relative viability (Crenolanib + Trametinib; first compound 0.03162 µM)	relative viability (Crenolanib + Trametinib; first compound 0.1 µM)	relative viability (Crenolanib + Trametinib; first compound 0.3162 µM)	relative viability (Crenolanib + Trametinib; first compound 1 µM)
EKVX	0.732	0.725	0.704	0.383	0.893	0.96	0.862	0.965	0.99	0.223	0.224	0.24	0.241	0.23	0.365	0.405	0.348	0.332	0.413
EMC-BAC-2	0.532	0.522	0.496	0.582	0.747	0.758	0.68	0.881	0.771	0.629	0.497	0.589	0.51	0.505	0.905	–	0.893	0.937	0.799
EPLC-272H	0.493	0.599	0.41	0.296	–	0.879	0.821	1.03	0.938	0.356	0.331	0.224	0.375	0.382	0.307	0.299	0.283	0.326	0.277
H3255	–	0.843	0.753	0.295	0.811	0.676	0.71	0.714	0.767	0.432	0.326	0.386	0.321	0.35	0.646	0.612	0.639	0.754	0.627
HARA	0.446	0.512	0.607	0.434	0.877	0.818	0.712	0.793	0.751	0.471	0.464	0.398	0.391	0.488	0.795	0.955	0.774	0.723	0.628
HCC-15	0.827	0.82	0.795	0.793	0.873	0.829	0.888	0.814	0.836	0.51	0.506	0.447	0.469	0.327	0.4	0.394	0.379	0.402	0.38
HCC-44	1.09	1.07	1.1	1.07	0.836	0.857	0.718	0.932	0.782	0.267	0.207	0.188	0.184	0.169	1.05	1.1	1.03	1.11	0.945
HCC-78	0.48	0.408	0.346	0.337	0.357	0.312	0.348	0.402	0.338	0.783	0.604	–	0.791	0.555	0.826	0.862	0.682	0.756	0.657
HCC-366	0.389	0.287	0.373	0.415	0.484	0.655	0.351	0.428	0.406	0.612	0.617	0.591	0.557	0.587	0.367	0.374	0.3	0.422	0.345
